14 compounds from patent US20080085889A1, “Amidomethyl-Substituted 1-(Carboxyalkyl) Cyclopentyl-Carbonylamino-Benzazepine-N-Acetic Acid Compounds, Process and Intermediate Products for Their Preparation and Pharmaceutical Compositions Containing Them” (SOLVAY PHARMACEUTICALS GmbH, priority 2003, published 2008) can be followed below.

The test system of assay [1] is formation of ET-1 from Big-ET-1. Briefly: In vivo inhibition of the Big-ET-1-induced blood pressure increase in anaesthetised rats, i.v. single dose. On the set-up: species or system Rats (Sprague-Dawley). To be noted: Rattus norvegicus, iv, 5 min before 0.5 nmol/kg Big-ET-1, negative values indicate inhibition, read-out: % substance-related inhibition of the maximum Big-ET effect on SAP vs. control; for change in vivo at 3 µmol/kg: 3 μmol/kg; for change in vivo at 10 µmol/kg: 10 μmol/kg. The source says: 3. In Vivo Investigation of the Inhibitory Action of the Substances on the Formation of ET-1 from Big-ET-1 in Rats
ET-1 is an endogenous substance with strong vasoconstrictive effect. An increase in the ET-1 level results in an increase in blood pressure. Upon infusion of Big-ET-1, an increase in blood pressure takes place to the extent that ET-1 is produced therefrom by enzyme-catalysed cleavage of Big-ET-1. As a measurement of the enzyme-inhibiting action of the substances, their inhibitory action on the increase in blood pressure induced by infusion of Big-ET-1 was determined.
Rats (Sprague-Dawley, CRLD=Charles River) were anaesthetised with 1 ml/kg Rompun/Ketavet 1:1. A pressure transducer (Statham) was inserted into the carotid artery to measure blood pressure. One jugular vein was cannulated for administering the substance, and the other for administering Big-ET-1. After a 20-minute equilibration phase, the rats were administered the corresponding test substance of Formula I at a dose of as a rule 10 μmol/kg (if not stated otherwise), or a vehicle. Five minutes later, 0.5 nmol/kg Big-ET-1 was infused over a period of one minute. The systolic (SAP=systolic arterial pressure) and the diastolic (DAP=diastolic arterial pressure) blood pressure and the heart rate were each measured before administration of the substance, then immediately before administration of Big-ET and in each case every five minutes over a period of 30 minutes after Big-ET administration using the pressure transducer in known manner. The maximum Big-ET-induced increase in blood pressure and the maximum lowering of heart rate were calculated from the measured values as the difference between the value measured at the moment of maximum development of the Big-ET action (typically after 5 min.) and the value measured before Big-ET infusion. Furthermore, the integral of the blood pressure curve under the influence of Big-ET-1 was determined over 30 minutes (AUC=area under the curve).
The percentage inhibition of the maximum Big-ET-1 effect on the systolic arterial blood pressure (SAP) after i.v. administration of the test substances compared with administration of a vehicle is set forth in the following Table 3a:
Data given in table 3a as negative values indicate an inhibitory effect.

For assay [2], the target named is T1, His6-tagged hSEP ectodomain (Homo sapiens, UniProt Q495T6).
T1 construct: His6-tagged hSEP ectodomain; His6; purchased Innogenetics, Ghent, Belgium
T1 sequence (Q495T6 49-779 limits assumed): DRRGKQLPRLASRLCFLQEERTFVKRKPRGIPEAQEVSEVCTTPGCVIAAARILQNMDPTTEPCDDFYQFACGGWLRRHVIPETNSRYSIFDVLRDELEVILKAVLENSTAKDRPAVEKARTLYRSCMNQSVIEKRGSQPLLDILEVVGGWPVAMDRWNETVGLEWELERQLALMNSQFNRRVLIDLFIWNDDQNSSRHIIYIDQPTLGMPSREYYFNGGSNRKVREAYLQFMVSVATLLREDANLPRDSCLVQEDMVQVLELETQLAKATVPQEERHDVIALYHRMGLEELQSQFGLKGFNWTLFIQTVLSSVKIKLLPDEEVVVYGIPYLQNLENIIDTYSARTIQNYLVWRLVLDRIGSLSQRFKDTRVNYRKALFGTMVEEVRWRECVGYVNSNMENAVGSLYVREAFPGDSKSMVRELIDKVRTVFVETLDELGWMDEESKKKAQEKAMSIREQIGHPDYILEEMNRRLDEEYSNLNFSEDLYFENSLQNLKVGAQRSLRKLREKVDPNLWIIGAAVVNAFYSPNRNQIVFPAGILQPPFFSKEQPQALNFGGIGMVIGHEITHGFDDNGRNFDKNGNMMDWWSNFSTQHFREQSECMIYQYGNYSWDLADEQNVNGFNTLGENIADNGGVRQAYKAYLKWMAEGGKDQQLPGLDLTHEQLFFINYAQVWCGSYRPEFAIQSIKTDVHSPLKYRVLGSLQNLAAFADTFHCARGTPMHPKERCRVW
Briefly: In vitro investigation of the hSEP-inhibitory action (fluorescence-quenched Big-ET-1 analogue, HPLC). Type of assay: biochemical. The procedure:
2. In Vitro Investigation of the hSEP-Inhibitory Action of the Substances
In this test, the measure of the inhibitory activity of the substances which was determined was their IC50 value. The IC50 value of a test substance having enzyme-inhibitory activity is that concentration of the test substance at which 50% of the enzymatic activity of the hSEP is blocked.
The test and the HPLC procedure were carried out analogously to the manner set forth above for determining the in vitro inhibitory action of the test substances on NEP. 10 nM phosphoramidon served as standard inhibitor in the HPLC procedure. In this test model the test substances of Formula I listed in the following Table 2 had the IC50 values given below: […]

For assay [3], the target named is T2, soluble, human recombinant NEP (Homo sapiens, UniProt P08473).
T2 construct: soluble, human recombinant NEP; purchased Prof; Crine, University of Montreal, Canada
Briefly: In-vitro investigation of the NEP inhibitory action (fluorescence-quenched Big-ET-1 analogue, HPLC). Type of assay: biochemical. As to the method:
1. In-Vitro Investigation of the NEP Inhibitory Action of the Substances
In this test, the measure of the inhibitory activity of the substances which was determined was their IC50 value. The IC50 value of a test substance having enzyme-inhibitory activity is that concentration of the test substance at which 50% of the enzymatic activity of the NEP is blocked.
70 μl test buffer, 10 μl enzyme working solution and 10 μl test substance solution were mixed in an Eppendorf vessel and preincubated at 37° C. for 15 minutes (=min.). Then 10 μl substrate stock solution was added and the test batch was incubated for 60 minutes at 37° C. The enzymatic reaction was then ended by 5-minutes' heating to 95° C. After centrifugation (Heraeus Biofuge B, 3 min.), the liquid supernatant was investigated by HPLC in accordance with the following specifications.
The substrate was separated from cleavage products by means of reversed-phase HPLC (CC 125/4 Nucleosil 300/5 C18 RP column with CC 8/4 Nucleosil 100/5 C18 precolumn, from Macherey-Nagel, Düren, Germany). For this, 60 μl of the test mixture was injected into the HPLC sample injection point and the column was then eluted at a flow rate of 1 ml/min with the following gradient:
Mobile Phase B: 100% acetonitrile+0.5M H3PO4
All the peptides were detected by absorption at 214 nm and by fluorescence with an excitation wavelength of 328 nm and an emission wavelength of 393 nm.
Upon enzymatic cleavage of the peptide, the fluorophore (=Mca) and the quencher end up in different peptide fragments, which reduces the effectiveness of the quench. […] The increasing fluorescence signal (corresponds to the area, A) of the HPLC peak of the peptide with the non-quenched Mca fluorophore is used for the further calculations. This signal was compared for samples with (=Ainhib) and without (=Acontrol) test substance of Formula I, and the value “% inhibition” was calculated on the basis of the respective peak areas according to the following formula: % inhibition=100*(1−Ainhib/Acontrol)
All the samples were measured in duplicates and average values were calculated therefrom. A standard inhibitor (10 nM thiorphan) and a solvent control (0.1% DMSO) were likewise measured as quality controls on each run. In this test model the test substances of Formula I listed in the following Table 1 had the IC50 values given below: […]

Structures are written as SMILES.

T2 sequence (P08473 52-750 limits assumed): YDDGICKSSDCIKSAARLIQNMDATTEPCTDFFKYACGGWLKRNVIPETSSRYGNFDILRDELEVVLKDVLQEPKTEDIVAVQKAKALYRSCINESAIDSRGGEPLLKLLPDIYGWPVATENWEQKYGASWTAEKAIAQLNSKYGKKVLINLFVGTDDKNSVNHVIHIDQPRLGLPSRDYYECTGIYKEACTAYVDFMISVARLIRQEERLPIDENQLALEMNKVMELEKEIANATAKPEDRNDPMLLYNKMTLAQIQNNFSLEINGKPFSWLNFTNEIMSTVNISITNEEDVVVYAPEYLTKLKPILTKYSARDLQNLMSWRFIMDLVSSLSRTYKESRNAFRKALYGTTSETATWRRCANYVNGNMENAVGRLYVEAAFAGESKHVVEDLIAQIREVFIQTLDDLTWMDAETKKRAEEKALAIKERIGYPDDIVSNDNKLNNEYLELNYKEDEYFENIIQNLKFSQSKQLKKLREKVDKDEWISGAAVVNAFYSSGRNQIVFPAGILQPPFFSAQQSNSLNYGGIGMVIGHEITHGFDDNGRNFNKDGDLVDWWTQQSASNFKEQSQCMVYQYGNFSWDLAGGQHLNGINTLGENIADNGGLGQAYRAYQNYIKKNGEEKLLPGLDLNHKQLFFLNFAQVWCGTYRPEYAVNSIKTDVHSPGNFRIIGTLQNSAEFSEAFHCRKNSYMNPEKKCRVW

Take `CNCCCN(C)C(=O)CC(CC1(C(=O)NC2CCc3ccccc3N(CC(=O)O)C2=O)CCCC1)C(=O)O` (racemic) [Example 77, 2-{[1-({[1-(carboxymethyl)-2-oxo-2,3,4,5-tetrahydro-1H-1-benzazepin-3-yl]amino}carbonyl)cyclopentyl]methyl}-4-{methyl[3-(methylamino)propyl]amino}-4-oxobutanoic acid]: the change in vivo at 3 µmol/kg in assay [1] is -56%.
Turning to `O=C(O)CN1C(=O)[C@@H](NC(=O)C2(CC(CC(=O)N3CCOCC3)C(=O)O)CCCC2)CCc2ccccc21` (single isomer, unassigned) [Example 19], the concentration for half-maximal inhibition (IC50) worked out at 9.5 nM in assay [2] and 18.2 nM in assay [3].
In turn, `CC(C)NC(=O)CC(CC1(C(=O)N[C@H]2CCc3ccccc3N(CC(=O)O)C2=O)CCCC1)C(=O)O` (stereo partly drawn) [Example 2, 2-{[(3S)-1-({[1-(carboxymethyl)-2-oxo-2,3,4,5-tetrahydro-1H-1-benzazepin-3-yl]amino}-carbonyl)cyclopentyl]methyl}-4-(isopropylamino)-4-oxobutyric acid] yielded an IC50 in assay [2] of 21.4 nM. For the same compound, in assay [1], the change in vivo at 10 µmol/kg is -53%.
Regarding `O=C(O)CN1C(=O)[C@@H](NC(=O)C2(CC(CC(=O)NCCCO)C(=O)O)CCCC2)CCc2ccccc21` (stereo in doubt) [Example 10, (2″rel1″)-2-{[1-({[(3S)-1-(carboxymethyl)-2-oxo-2,3,4,5-tetrahydro-1H-1-benzazepin-3-yl]amino}carbonyl)cyclopentyl]methyl}-4-[(3-hydroxypropyl)amino]-4-oxobutyric acid], the IC50 is 25.3 nM in assay [2] and 37 nM in assay [3].
For `CN(CCO)C(=O)CC(CC1(C(=O)NC2CCc3ccccc3N(CC(=O)O)C2=O)CCCC1)C(=O)O` (racemic) [Example 43, 2-{[1-({[1-(carboxymethyl)-2-oxo-2,3,4,5-tetrahydro-1H-1-benzazepin-3-yl]amino}carbonyl)cyclopentyl]methyl}-4-[(2-hydroxyethyl)(methyl)amino]-4-oxobutanoic acid], the IC50 turned out to be 2.9 nM in assay [2] and 3.2 nM in assay [3].
With `CN(CCCO)C(=O)CC(CC1(C(=O)NC2CCc3ccccc3N(CC(=O)O)C2=O)CCCC1)C(=O)O` (racemic) [Example 56, 2-{[1-({[1-(carboxymethyl)-2-oxo-2,3,4,5-tetrahydro-1H-1-benzazepin-3-yl]amino}carbonyl)cyclopentyl]methyl}-4-[(3-hydroxypropyl)(methyl)amino]-4-oxobutanoic acid], in assay [2], the IC50 was determined as 2.5 nM.
Take `CNC(=O)CC(CC1(C(=O)N[C@H]2CCc3ccccc3N(CC(=O)O)C2=O)CCCC1)C(=O)O` (mixture of isomers) [Example 28]: in assay [2], the midpoint of inhibition, the IC50, lay at 11.9 nM.
Consider `CC(=O)CC(C)(C)NC(=O)CC(CC1(C(=O)N[C@H]2CCc3ccccc3N(CC(=O)O)C2=O)CCCC1)C(=O)O` (mixture of isomers) [Example 21], for which the change in vivo at 10 µmol/kg in assay [1] was -43%. The IC50 in assay [3] worked out at 16.9 nM.
Take `CC(C)NC(=O)CC(CC1(C(=O)N[C@H]2CCc3ccccc3N(CC(=O)O)C2=O)CCCC1)C(=O)OCc1ccc(Cl)cc1` (stereo partly drawn) [Example 14, {(3S)-3-[({1-[2-{[(4-chlorobenzyl)oxy]carbonyl}-4-(isopropylamino)-4-oxobutyl]-cyclopentyl}carbonyl)amino]-2-oxo-2,3,4,5-tetrahydro-1H-1-benzazepin-1-yl}acetic acid]: the change in vivo at 3 µmol/kg in assay [1] is -59%.
In the case of `CN(C)C(=O)CC(CC1(C(=O)NC2CCc3ccccc3N(CC(=O)O)C2=O)CCCC1)C(=O)O` (racemic) [Example 54, 2-{[1-({[1-(carboxymethyl)-2-oxo-2,3,4,5-tetrahydro-1H-1-benzazepin-3-yl]amino}carbonyl)cyclopentyl]methyl}-4-(dimethylamino)-4-oxobutanoic acid], the change in vivo at 10 µmol/kg in assay [1] is -87%.
In the case of `CN(C)CCCN(C)C(=O)CC(CC1(C(=O)NC2CCc3ccccc3N(CC(=O)O)C2=O)CCCC1)C(=O)O` (racemic) [Example 60, 2-[(1-{[1-(carboxymethyl)-2-oxo-2,3,4,5-tetrahydro-1H-1-benzazepin-3-yl]carbamoyl}cyclopentyl)methyl]-4-{[3-(dimethylamino)propyl](methyl)amino}-4-oxobutanoic acid], the change in vivo at 10 µmol/kg in assay [1] is -70%.
As for `O=C(O)CN1C(=O)[C@@H](NC(=O)C2(CC(CC(=O)NCc3ccccc3)C(=O)O)CCCC2)CCc2ccccc21` (mixture of isomers) [Example 27], the figures for the IC50 in assay [2] and in assay [3] were 26.8 nM and 7.8 nM, respectively.
On to `CC(C)[C@H](N)C(=O)OC1CCN(C(=O)CC(CC2(C(=O)N[C@H]3CCc4ccccc4N(CC(=O)O)C3=O)CCCC2)C(=O)O)CC1` (stereo partly drawn) [Example 70, 2-{[1-({[1-(carboxymethyl)-2-oxo-2,3,4,5-tetrahydro-1H-1-benzazepin-3-yl]amino}carbonyl)cyclopentyl]methyl}-4-oxo-4-[4-(L-valyloxy)piperidin-1-yl]butanoic acid], for which, in assay [1], the change in vivo at 10 µmol/kg is -77%.
As to `CC(C)N(C)C(=O)CC(CC1(C(=O)NC2CCc3ccccc3N(CC(=O)O)C2=O)CCCC1)C(=O)O` (racemic) [Example 32, 2-{[1-({[1-(carboxymethyl)-2-oxo-2,3,4,5-tetrahydro-1H-1-benzazepin-3-yl]amino}carbonyl)cyclopentyl]methyl}-4-[isopropyl(methyl)amino]-4-oxobutanoic acid], the change in vivo at 10 µmol/kg in assay [1] was -60%. Further, the IC50 in assay [3] worked out at 13.8 nM.

By IC50 is commonly meant the concentration needed to halve the response being measured.
